According to ChEMBL document CHEMBL1132968, “Substituent effects on the antibacterial activity of nitrogen-carbon-linked (azolylphenyl)oxazolidinones with expanded activity against the fastidious gram-negative organisms Haemophilus influenzae and Moraxella catarrhalis” (2000):
Values after ≈ are worked out from the molar mass of the structure shown.

Tests used:
Assay type in all cases: functional
Enterococcus faecalis = assay: Inhibitory activity against Enterococcus faecalis UC9217
Haemophilus influenzae = assay: Inhibitory activity against Haemophilus influenzae UC30063
Moraxella catarrhalis = assay: Inhibitory activity against Moraxella catarrhalis UC30610
Streptococcus pneumoniae = assay: Inhibitory activity against Streptococcus pneumoniae UC9912
[1] = system: Staphylococcus epidermidis; assay: Inhibitory activity against Methicillin-resistant Staphylococcus epidermidis UC12084
Staphylococcus aureus [2] = assay: Inhibitory activity against Methicillin-resistant Staphylococcus aureus UC6685
Staphylococcus aureus [3] = assay: Inhibitory activity against Methicillin-susceptible Staphylococcus aureus UC9213
Mus musculus [4] = assay: Dose required to cure 50% of Staphylococcus aureus infected mice when orally administered;value ranges from 3.1-7.8; details: po
Mus musculus [5] = assay: Dose required to cure 50% of Staphylococcus aureus infected mice in the presence of vancomycin when administered orally.; details: po
Mus musculus [6] = assay: Dose required to cure 50% of Staphylococcus aureus infected mice when administered orally;; details: po
Mus musculus [7] = assay: Dose required to cure 50% of Staphylococcus aureus infected mice in the presence of eperezolid when administered orally; vlue ranges from 1.1-2.8; details: po
Mus musculus [8] = assay: Dose required to cure 50% of Staphylococcus aureus infected mice when administered orally; the value ranges from 1.1-3.3; details: po
Mus musculus [9] = assay: Dose required to cure 50% of Staphylococcus aureus infected mice in the presence of eperezolid when orally administered; the value ranges from 1.7-4.5; details: po

SMILES | MIC (Enterococcus faecalis) | MIC (Haemophilus influenzae) | MIC (Moraxella catarrhalis) | MIC (Streptococcus pneumoniae) | MIC [1] | MIC (Staphylococcus aureus [2]) | MIC (Staphylococcus aureus [3]) | ED50 (Mus musculus [4]) | ED50 (Mus musculus [5]) | ED50 (Mus musculus [6]) | ED50 (Mus musculus [7]) | ED50 (Mus musculus [8]) | ED50 (Mus musculus [9])
CC(=O)NC[C@H]1CN(c2ccc(-n3ccnn3)c(F)c2)C(=O)O1 | 1 µg/mL (≈ 3.13 µM) | 4 µg/mL (≈ 12.5 µM) | 2 µg/mL (≈ 6.26 µM) | ≤ 0.5 µg/mL | ≤ 0.5 µg/mL | 1 µg/mL (≈ 3.13 µM) | 1 µg/mL (≈ 3.13 µM) | 4.7 mg/kg/day | 2 mg/kg/day | – | – | – | –
CC(=O)NC[C@H]1CN(c2ccc(-n3cnnc3)c(F)c2)C(=O)O1 | 8 µg/mL (≈ 25.1 µM) | > 16 µg/mL | 8 µg/mL (≈ 25.1 µM) | 1 µg/mL (≈ 3.13 µM) | 4 µg/mL (≈ 12.5 µM) | 8 µg/mL (≈ 25.1 µM) | 16 µg/mL (≈ 50.1 µM) | – | – | > 20 mg/kg/day | 2 mg/kg/day | – | –
CC(=O)NC[C@H]1CN(c2ccc(-n3cc(C#N)nn3)c(F)c2)C(=O)O1 | 1 µg/mL (≈ 2.9 µM) | 2 µg/mL (≈ 5.81 µM) | 2 µg/mL (≈ 5.81 µM) | ≤ 0.125 µg/mL | 0.25 µg/mL (≈ 0.726 µM) | 0.5 µg/mL (≈ 1.45 µM) | 1 µg/mL (≈ 2.9 µM) | – | – | – | – | 1.9 mg/kg/day | 2.8 mg/kg/day
